Literature values in patent US8022220B2, “Process for production of piperidine derivatives” (Albany Molecular Research, Inc., priority 1995, dated 2011).

Test system: delayed rectifier potassium current
Conditions: concentrations up to 5 μM; isolated feline ventricular myocytes

## CC(C)(C(=O)O)c1ccc(C(O)CCCN2CCC(C(O)(c3ccccc3)c3ccccc3)CC2)cc1 (stereo not drawn) [terfenadine carboxylic acid metabolite, 4-[4-[4-(hydroxydiphenylmethyl)-1-piperidinyl]-1-hydroxybutyl]-α-α-dimethylphenylacetic acid]
  effect on the potassium current: no significant effect
